Results reported in patent US20170000903A1, “CRYSTALLINE CELLULOSE GEL-BASED CRYPTANDS, SURFACE ACTIVE AGENTS, EMULSIONS AND VESICLES” (UNIVERSITY OF SASKATCHEWAN, priority 2013, published 2017).

Tests used:
[1] = cited from earlier work
[2] = Solubility of Clotrimazole in water / methanol, dark field microscopy; assay type: physicochemical
Excerpt: The methanol solution was then mixed with 1% cellulose gel (treatment) and water (positive control). All samples were examined under a dark field microscope.

[3] = Dye release from crystalline cellulose gel to liquid phase (visual and spectrophotometric); assay type: physicochemical; conditions: for release pattern from crystalline cellulose gel (very slow, slow, fast, very fast): categorised from absorbance in the liquid phase, 0-72 hours; for dye release to liquid phase, absorbance: over 72 hours, 10 ml RO water over gel, at absorbance maximum of dye, 4 AU = saturation; for colour of solution above the precipitate after 72 hours (dye diffusion out of cellulose crystals): 72 hours at room temperature (approximately 21-22° C.), visual
Protocol: Approximately 2 ml aliquots of 3% w/v crystalline cellulose gel samples containing small solid cellulose crystals were thoroughly mixed with respective model dye solutions and incubated for 30 minutes at room temperature. The stained samples where then centrifuged. The supernatant was decanted, and the pellets containing crystalline cellulose were washed several times with reverse osmosis water and centrifuged. The cycles of washing and centrifugation were repeated until water in which cellulose gel was suspended was clear. After the final wash, small samples of each gel were taken for microscopic examination, and the gels in each tube were covered with a 10 ml column of RO water. These preparations served as media for monitoring the rate of dye release from crystalline cellulose gel to the surrounding liquid phase. Following a few minutes of sample equilibration, 500 μl of the liquid phase was withdrawn from each preparation for spectroscopic measurements to establish absorbance values at time 0. Subsequently, 500 μl samples of the liquid phase were collected at 2, 6, 12, 24, 48, and 72 hour intervals for monitoring of dye release to the liquid phase from the cellulose matrix over time.

[4] = 1 mg per ml, dark field microscope

Row | solubility in methanol [2, 4] | solubility in water [2, 4] | behaviour of methanol solution mixed with water ([2]; methanol solution 1 mg per ml mixed with water) | Structure (SMILES) | solubility in organic solvents (known property) [1] | solubility in water (known property) [1] | release pattern from crystalline cellulose gel (very slow, slow, fast, very fast) [3] | dye release to liquid phase, absorbance [3] | colour of solution above the precipitate after 72 hours (dye diffusion out of cellulose crystals) [3]
1 | totally dissolved in methanol | not soluble in water | fine crystals precipitated | Clc1ccccc1C(c1ccccc1)(c1ccccc1)n1ccnc1 [Clotrimazole] | soluble in acetone, chloroform, methanol and ethanol | practically insoluble in water | – | – | –
2 | – | – | – | CCN(CC)c1ccc(C(=C2C=CC(=[N+](CC)CC)C=C2)c2ccccc2)cc1 [brilliant green, Brilliant Green] | – | – | very fast | 4 AU | –
3 | – | – | – | Nc1c(/N=N/c2ccc(-c3ccc(/N=N/c4cc(S(=O)(=O)[O-])c5ccccc5c4N)cc3)cc2)cc(S(=O)(=O)[O-])c2ccccc12.[Na+].[Na+] [congo red, Congo Red] | – | – | slow | 0.128 AU | diffused out of the precipitated cellulose crystals
4 | – | – | – | Oc1cc2c(cc1O)[C@@H]1c3ccc(O)c(O)c3OC[C@]1(O)C2 [haematoxylin, Hematoxilin] | – | – | slow | 0.09 AU | diffused out of the precipitated cellulose crystals
5 | – | – | – | CCN(Cc1cccc(S(=O)(=O)[O-])c1)c1ccc(C(=C2C=CC(=[N+](CC)Cc3cccc(S(=O)(=O)O)c3)C=C2)c2ccc(S(=O)(=O)O)cc2)cc1 [light green, Light Green] | – | – | very fast | 4 AU | –
6 | – | – | – | CN(C)c1ccc(C(=C2C=CC(=[N+](C)C)C=C2)c2ccccc2)cc1.[Cl-] [malachite green, Malachite Green] | – | – | slow | 0.32 AU | –
7 | – | – | – | CN(C)c1ccc2nc3ccc(=[N+](C)C)cc-3sc2c1 [methylene blue, Methylene Blue] | – | – | very slow | 0.025 AU | slight bluish hue
8 | – | – | – | Cc1cc2nc3cc(C)c(N)cc3[n+](-c3ccccc3)c2cc1N [safranine, Safranine] | – | – | slow | 0.08 AU | slight pinkish hue
